{"source": "patent US11116745B2", "about": "“Prebiotic formulation” (Deep Cell Industries, Inc., priority 2018, dated 2021)", "origin": "cited, not measured here", "key": {"enteric glial cells": {"tested_on": "enteric glial cells", "conditions": "over active enteric glial cells"}, "[1]": {"experiment": "not given", "remark": "listed apart in the source"}, "cannabinoid CB2 receptor": {"target": "cannabinoid CB2 receptor (Homo sapiens, UniProt P34972)", "sequence (P34972 whole entry)": "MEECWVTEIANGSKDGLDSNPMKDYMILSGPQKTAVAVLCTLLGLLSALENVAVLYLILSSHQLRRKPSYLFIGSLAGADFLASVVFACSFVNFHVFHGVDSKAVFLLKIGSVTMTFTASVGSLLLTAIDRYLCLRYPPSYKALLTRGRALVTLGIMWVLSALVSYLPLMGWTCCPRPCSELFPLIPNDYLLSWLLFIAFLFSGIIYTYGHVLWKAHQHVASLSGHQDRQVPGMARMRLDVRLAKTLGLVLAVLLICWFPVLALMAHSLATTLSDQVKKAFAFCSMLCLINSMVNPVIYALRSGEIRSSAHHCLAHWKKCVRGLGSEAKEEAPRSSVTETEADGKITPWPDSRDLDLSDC"}}}
{"smiles": "C=C(C)[C@@H]1CCC(C)=C[C@H]1c1c(O)cc(CCCCC)cc1O", "note": "[Cannabidiol]", "values": [{"measurement": "expression of S100B and iNOS proteins", "setting": "enteric glial cells", "result": "reduce"}, {"measurement": "solubility", "result": "low"}, {"measurement": "oral bioavailability (absorption)", "setting": "[1]", "result": "13-19%"}, {"measurement": "affinity for the cannabinoid CB2 receptor", "setting": "cannabinoid CB2 receptor", "result": "very low affinity"}]}
